Read-outs that look alike come from different tables or passages of the source.
Columns and labels:
[1] = system: MCF7 cells; test: LDH release cytotoxicity assay, MCF7; format: cell-based; conditions: Homo sapiens, 48 h, mean ± SD, read-out: In vitro cytotoxicity IC50 µM ± SD, MCF7
Method: (§1) HepG2 (Human liver carcinoma), HCT116 (human colorectal carcinoma), MCF7 (human breast adenocarcinoma), and the normal human skin fibroblast (BJ-1) cell lines were purchased from the american type culture collection (Rockville, MD, USA) and maintained in RPMI-1640 medium which was supplemented with 10% heat-inactivated FBS, 100U/ml penicillin and 100U/ml streptomycin. The cells were grown at 37 °C in a humidified atmosphere of 5% CO2. All experiments were conducted thrice in triplicate (n = 3). All the values were represented as means ± SD. Significant differences between the means of parameters as well as IC50s were determined by probit analysis using SPSS software program (SPSS Inc., Chicago, IL).
(§2) To determine the effect of each synthesized compound on membrane permeability in HepG2, MCF-7 and HCT116 cancer cell lines as well as BJ-1 normal cell line, a lactate dehydrogenase (LDH) release assay was used[29]–[33]. The cells were seeded in 24-well culture plates at a density of 1 × 10^4 cells/well in 500 µL volume and allowed to grow for 18 h before treatment. After treatment with a series of different concentrations of each compound or DOX (positive control), the plates were incubated for 48 h. Then, the supernatant (40 µL) was transferred to a new 96 well to determine LDH release and 6% triton X-100 (40 µL) was added to the original plate for determination of total LDH. An aliquot of 0.1 M potassium phosphate buffer (100 µL, pH 7.5) containing 4.6 mM pyruvic acid was mixed to the supernatant using repeated pipetting. Then, 0.1 M potassium phosphate buffer (100 µL, pH 7.5) containing 0.4 mg/mL reduced β-NADH was added to the wells. The kinetic changes were read for 1 min using ELISA microplate reader in absorbance at wavelength 340 nm. This procedure was repeated with 40 µL of the total cell lysate to determine total LDH. The percentage of LDH release was determined by dividing the LDH released into the media by the total LDH following cell lysis in the same well. The cell Passage numbers for MCF 7 = P13, Hep G2 = P15, HCT 116 = P 9.
(§3) All experiments were conducted in triplicate (n = 3). All the values were represented as mean ± SD. Significant differences between the means of parameters as well as IC50s were determined by probit analysis using SPSS software program (SPSS Inc., Chicago, IL).

[2] = system: HepG2 cells; test: LDH release cytotoxicity assay, HepG2; format: cell-based; conditions: Homo sapiens, 48 h, mean ± SD, read-out: In vitro cytotoxicity IC50 µM ± SD, HepG2
Method: as §1, §2, §3

[3] = system: HCT116 cells; test: LDH release cytotoxicity assay, HCT116; format: cell-based; conditions: Homo sapiens, HCT-116, 48 h, mean ± SD, read-out: In vitro cytotoxicity IC50 µM ± SD, HCT116
Method: as §1, §2, §3

[4] = system: BJ1 normal cells; test: LDH release cytotoxicity assay, normal skin fibroblasts BJ1; format: cell-based, human; conditions: non-tumor BJ1 fibroblasts
Method: as §1, §2, §3

[5] = system: beta-tubulin; test: Inhibition of tubulin polymerization in MCF-7 cells (beta-tubulin SimpleStep ELISA); format: cell-based, human; conditions: MCF7 cells, concentration not given
Text: Beta-tubulin in vitro simple step ELISA® (Enzyme-Linked Immunosorbent Assay) kit is designed for quantitative measurement of beta-tubulin protein in human cell and tissue homogenate extract samples.
The SimpleStep ELISA® employs an affinity tag labeled capture antibody and a reporter conjugated detector antibody which immunocapture the sample analyte in solution. This entire complex (capture antibody/analyte/detector antibody) is in turn immobilized via immunoaffinity of an anti-tag antibody coating the well. To perform the assay, samples or standards are added to the wells, followed by the antibody mix. After incubation, the wells are washed to remove unbound material. TMB development solution is added and during incubation is catalyzed by horseradish peroxidase (HRP), generating blue coloration. This reaction is then stopped by addition of stop solution completing any color change from blue to yellow. Signal is generated proportionally to the amount of bound analyte and the intensity is measured at 450 nm. Optionally, instead of the endpoint reading, development of TMB can be recorded kinetically at 600 nm. The concentration of beta-tubulin protein in the samples is determined by comparing the optical density (OD) of the samples to the standard curve. Each experiment was repeated two times (Table 2).

[6] = system: Topo II; test: Inhibition of topoisomerase II in MCF-7 cells (TOP2B sandwich ELISA); format: cell-based, human; conditions: MCF7 cells, concentration not given
Method: Mouse TOP2B/Topoisomerase II Beta ELISAKit (Sandwich ELISA) is designed for the quantitative measurement of Topo II enzyme.
This assay is based on the sandwich ELISA principle. Each well of the supplied microtiter plate has been pre-coated with a target specific capture antibody. Standards or samples are added to the wells, and the target antigen binds to the capture antibody. Unbound standard or sample is washed away. A biotin-conjugated detection antibody is then added which binds to the captured antigen. Unbound detection antibody is washed away. An avidin-horseradish peroxidase (HRP) conjugate is then added which binds to the biotin. Unbound avidin-HRP conjugate is washed away. A TMB substrate is then added which reacts with the HRP enzyme resulting in color development. A sulfuric acid stop solution is added to terminate color development reaction and then the optical density (OD) of the well is measured at a wavelength of 450 nm ± 2 nm. An OD standard curve is generated using known antigen concentrations; the OD of an unknown sample can then be compared to the standard curve to determine its antigen concentration. Each experiment was repeated two times (Table 3).

[7] = system: MCF7 cells; test: Propidium iodide flow cytometry cell cycle analysis; format: cell-based, human; conditions: compound at 2.4 µM
Method: Propidium iodide flow cytometry kit (ab139418) is designed for quantitative DNA content analysis in tissue culture cells, so we performed propidium iodide cell cycle analysis for active compounds 20 and 26 using MCF-7 cell line. Propidium iodide staining of DNA is the classic means of cell cycle analysis. The staining procedure takes less than 1 h of total processing time and cells fixed in ethanol are stable for at least several weeks at 4 °C.
Propidium iodide is a fluorescent molecule that binds nucleic acid with little or no sequence preference. Because propidium iodide binds RNA as well as DNA, RNaseA (ribonuclease A) is included in this kit to digest cellular RNA and thus decrease background RNA staining from the experiment. Since propidium iodide is membrane impermeant, ethanol is used to both fix and permeabilize cells. A flow cytometer is required for quantitative analysis. First, fix MCF-7 cells in 66% ethanol, store at + 4 °C for 2 h to 4 weeks and rehydrate cells in PBS. Finally, stain cells with propidium iodide then add RNase for 30 min. Collect propidium iodide fluorescence intensity on FL2 of a flow cytometer and […] laser excitation. A useful way to display propidium iodide data is on a histogram with the cell count on the y-axis and the propidium iodide fluorescence intensity on the x-axis.

[8] = system: MCF7 cells; test: Apoptosis and necrosis analysis by annexin V-FITC/PI staining; format: cell-based, human; conditions: at IC50 (2.4 µM), 48 h
Text: Annexin V apoptosis detection kit is used for analyzing apoptosis and necrosis for active compounds 20 and 26 in MCF7 cells using annexin V-FITC/PI dual staining followed by flow cytometry quantification and fluorescence microscopy detection.
Detection is based on the observation that soon after initiating apoptosis, cells translocate the membrane phosphatidylserine (PS) from the inner face of the plasma membrane to the cell surface. Once on the cell surface, PS can be easily detected by staining with a fluorescent conjugate of annexin V, a protein that has a high affinity for PS. Detection can be analyzed by flow cytometry or/and by fluorescence microscopy. The kit can differentiate between apoptosis and necrosis when performing both annexin V-FITC and PI staining. Assay is summarized as first, induce apoptosis by desired method, collect 1–5 × 10^5 cells by centrifugation, resuspend cells in 500 µl of 1× binding buffer, add 5 µl of annexin V-FITC and 5 µl of propidium iodide and finally incubate at room temperature for 5 min in the dark. After that, analyze annexin V-FITC binding by flow cytometry (Ex = 488 nm; Em = 530 nm) using FITC signal detector (usually FL1) and PI staining by the phycoerythrin emission signal detector (usually FL2) then, observe the cells under a fluorescence microscope using a dual filter set for FITC & rhodamine. Cells that have bound annexin V-FITC will show green staining in the plasma membrane. Cells that have lost membrane integrity will show red staining (PI) throughout the nucleus and a halo of green staining (FITC) on the cell surface.

[9] = system: NCI; set-up: method as in PMID 8392342; conditions: Fig. 1B; cited from earlier work
[10] = system: A549; set-up: method as in PMID 33465263; conditions: Fig. 1A; cited from earlier work
[11] = system: MCF-7; set-up: method as in ref 8 (podophyllotoxin), ref 13-15 (VIII); conditions: Fig. 1; ref 8 (podophyllotoxin), ref 13-15 (VIII); cited from earlier work
[12] = system: colon-26; set-up: method as in PMID 24669888, PMID 30111667, PMID 9873694; conditions: Fig. 1C; cited from earlier work
[13] = system: HL-60; set-up: method as in ref 4, 12 (YCH337), ref 13-15 (VIII); conditions: Fig. 1; 12 (YCH337), ref 13-15 (VIII); cited from earlier work
[14] = system: MDA-MB-231; set-up: method as in ref 5, 7 (CA-4), ref 13-15 (VII); conditions: Fig. 1; 7 (CA-4), ref 13-15 (VII); cited from earlier work
[15] = system: HeLa; conditions: Fig. 1, cited from earlier work
[16] = system: HepG2; set-up: method as in PMID 31278032; conditions: Fig. 1A; cited from earlier work
[17] = system: HT-29; set-up: method as in PMID 25840421, PMID 39533473; conditions: Fig. 1B; cited from earlier work
[18] = ref 10 (etoposide), 12 (YCH337)

COc1ccc(-c2cc(-c3cc(OC)c(OC)c(OC)c3)c(C#N)c3nnnn23)cc1 [Compound 26, 5-(4-methoxyphenyl)-7-(3,4,5-trimethoxyphenyl)tetrazolo[1,5-a]pyridine-8-carbonitrile]
IC50 [1]: 2.4 ± 0.1 µM | IC50 [2]: 6.3 ± 0.3 µM | IC50 [3]: 63.4 ± 5.3 µM | Cytotoxicity / selectivity toward BJ1 normal cells (in words) [4]: good selectivity | tubulin polymerization % inhibition [5]: 75% | Topo II % inhibition [6]: 43.7% | %G0-G1 [7]: 35.64% | %G2/M [7]: 50.69% | %S [7]: 13.67% | Apoptosis Early [8]: 7.58% | Apoptosis Late [8]: 28.16% | Apoptosis Total [8]: 41.26% | Necrosis [8]: 5.51%

COc1cc([C@@H]2c3[nH]c4ccccc4c3C[C@H]3COC(=O)N32)cc(OC)c1O [Azatoxin (NSC 640737), azatoxin]
IC50 [9]: 130 nM

COc1cc(-c2cc(-c3cc(OC)c(OC)c(OC)c3)c(C#N)c(Cl)n2)cc(OC)c1OC [Compound 20, 2-Chloro-4,6-bis(3,4,5-trimethoxyphenyl)nicotinonitrile]
IC50 [1]: 2.4 ± 0.1 µM | IC50 [2]: 6.1 ± 0.5 µM | IC50 [3]: 34.4 ± 3.2 µM | Cytotoxicity / selectivity toward BJ1 normal cells (in words) [4]: good selectivity | tubulin polymerization % inhibition [5]: 74.7% | Topo II % inhibition [6]: 70.3% | %G0-G1 [7]: 39.69% | %G2/M [7]: 43.3% | %S [7]: 17.01% | Apoptosis Early [8]: 11.91% | Apoptosis Late [8]: 22.63% | Apoptosis Total [8]: 38.41% | Necrosis [8]: 3.87%

Cc1cc(-c2ccco2)c(C#N)c(N=P(c2ccccc2)(c2ccccc2)c2ccccc2)n1 [Compound 41, 4-(Furan-2-yl)-6-methyl-2-((triphenyl-λ^5-phosphaneylidene)amino)nicotinonitrile]
IC50 [1]: 2.4 ± 0.1 µM | IC50 [2]: 27.3 ± 2.3 µM | IC50 [3]: 38.2 ± 2.8 µM | Cytotoxicity / selectivity toward BJ1 normal cells (in words) [4]: good selectivity | tubulin polymerization % inhibition [5]: 61.2%

COc1cc([C@@H]2c3cc4c(cc3[C@H](O)[C@H]3COC(=O)[C@H]23)OCO4)cc(OC)c1OC [Podophyllotoxin]
IC50 [10]: 1900 nM | IC50 [11]: 2210 nM

COc1ccc(-c2nnnn2-c2cc(OC)c(OC)c(OC)c2)cc1N [IX]
IC50 [12]: 7.2 nM

COc1ccc(-c2cc(-c3cc(OC)c(OC)c(OC)c3)c(C#N)c(=O)[nH]2)cc1 [VIII]
IC50 [11]: 180 nM | IC50 [13]: 470 nM

COc1ccc(-c2cc(-c3cc(OC)cc(OC)c3)c(C#N)c(N=P(c3ccccc3)(c3ccccc3)c3ccccc3)n2)cc1 [Compound 38, 4-(3,5-Dimethoxyphenyl)-6-(4-methoxyphenyl)-2-((triphenyl-λ^5-phosphaneylidene)amino)-nicotinonitrile]
IC50 [1]: 2.5 ± 0.1 µM | IC50 [2]: 12.2 ± 1.1 µM | IC50 [3]: 31.5 ± 3.2 µM | Cytotoxicity / selectivity toward BJ1 normal cells (in words) [4]: good selectivity | tubulin polymerization % inhibition [5]: 71.7%

COc1ccc(-c2cccc(-c3ccc(OC)cc3OC)n2)cc1 [VII]
IC50 [14]: 3.1 nM | IC50 ([15]; 7 (CA-4), ref 13-15 (VII)): 3.8 nM

COc1ccc(O)c(C(=O)c2cnc3[nH]c4ccccc4c3c2)c1 [YCH337]
IC50 [15, 18]: 60 nM | IC50 [13]: 210 nM

COc1cc([C@@H]2c3cc4c(cc3[C@@H](O[C@@H]3O[C@@H]5CO[C@@H](C)O[C@H]5[C@H](O)[C@H]3O)[C@H]3COC(=O)[C@H]23)OCO4)cc(OC)c1O [Etoposide]
IC50 [15, 18]: 12200 nM | IC50 [16]: 10500 nM

COC(=O)C1C(c2cc(OC)c(OC)c(OC)c2)c2cc3c(cc2C(n2cc(-c4ccc(F)cc4)nn2)C1C=O)OCO3 (stereo not shown) [VI]
IC50 [17]: 40 nM

COc1ccc(/C=C\c2cc(OC)c(OC)c(OC)c2)cc1O [CA4, Combretastatin A4]
tubulin polymerization % inhibition [5]: 72.1% | IC50 [14]: 2.8 nM | IC50 ([15]; 7 (CA-4), ref 13-15 (VII)): 1 nM
